Test [1] deals with corpus cavernosal strips (CCS). In words: EFS-induced cAMP in CCS of ADA+ and ADA-/- mice. The test is classed as cell-based, mouse. Conditions: CCS of either ADA-/- or ADA+ mice, EFS 5V 30 Hz; MRS1706 (10 nM), ZM241385 (50 nM), L-NAME (100 μM). The method, then:
FIG. 19. EFS leads to increased cAMP and cGMP production via A2BR in ADA-deficient mice. (a-b) Corpus cavernosal strips (CCS) of the ADA−/− and ADA+ mice were isolated and treated with 10 μM phenylephrine (PE) to induce precontraction. Then CCS were treated with MRS1706 (10 nM), ZM241385 (50 nM) or L-NAME (100 μM) prior to electrical field stimulation (EFS) at 5V and 30 Hz. 60 second after nerve stimulation, the CCS were quickly frozen and cellular cAMP (a) and cGMP (b) were measured by using commercial enzyme immunoassay kit (Amersham Pharmacia). N=4. Data are expressed as mean±SE. *p<0.05, ADA deficient mice versus the control; **p<0.05, CCS of ADA-deficient mice with MRS1706 and/or L-NAME treatment versus CCS of ADA-deficient mice without treatment; ***p<0.05, CCS of the control mice with MRS1706 and/or L-NAME treatment versus CCS of the control mice without treatment.
Function experiments. […] The contractility of each isolated corpus cavernosum smooth muscle cells (CCSM) strip was measured using an isometric force transducer (AD Instrument Inc., Georgia, Vt., USA). […] The contractile responses of the strips were analysed by adding 10 μM phenylephrine to the bath, and force changes were recorded in response to drug application and to electrical field stimulation. […]

For test [2], the system named is corpus cavernosal strips (CCS). In words: Adenosine-induced relaxation of corpus cavernosal strips (CCS). Type of test: cell-based, mouse. The method, then:
FIG. 16. […] CCS of wild type mice were treated with different concentrations of adenosine with or without DCF (5 μM), a specific inhibitor of adenosine deaminase. Then the extent (mN) of force was monitored. (b) CCS of wild type mice were treated with 100 μM adenosine in the presence of different concentrations of DCF (0-100 uM). Then the extent of force was measured. Data are expressed as mean±SE. *p<0.05, adenosine treated versus the control, **p<0.05, DCF treated versus the adenosine treated.
FIG. 17. A2BR signaling is required for adenosine-mediated corpus cavernosal strips (CCS) relaxation. (a) CCS of wild type mice were treated with different concentrations of theophiline (1-10 μM) in the presence or absence of adenosine (100 μM). The force changes were measured by force transducer. Data are expressed as mean±SE. *p<0.05, adenosine treated versus the control, **p<0.05, theophiline treated versus the untreated, N=5. (b) CCS from wild type, A2AR, A1R A2BR and A3R-deficient mice were treated with different concentrations of adenosine. The relaxation was measured by force transducer. Data are expressed as mean±SE. *p<0.05, adenosine treated versus the wild type. (c) CCS were isolated from wild type and A2BR-deficient mice and treated with different concentrations of adenosine in the presence or absence of L-NAME (100 μM) or MRS1706 (10 μM). 10 min after treatment, cellular extracts were collected and cAMP levels were measured by using a commercial enzyme immunoassay kit (Amersham Pharmacia). Data are expressed as mean±SE. *p<0.05, adenosine treated versus the control without treatment; **p<0.05, adenosine treated with MRS1706 versus the adenosine treated alone; ***p<0.05, CCS of A2BR-deficient mice treated with adenosine versus the CCS of wild type mice treated with adenosine. N=6-7. (d) CCS of A2BR and ADA double deficient mice lost the hypersensitivity to nerve stimulation compared to ADA deficient mice.
Function experiments. The tunica albuginea was cut longitudinally, starting at the most proximal point of the corpus cavernosum (CC) toward the penile shaft, and the erectile tissue was partially dissected free from the tunica. One strip of tissue (0.3×0.3×3 mm) was obtained from each corpus cavernosum. The contractility of each isolated corpus cavernosum smooth muscle cells (CCSM) strip was measured using an isometric force transducer (AD Instrument Inc., Georgia, Vt., USA). The strip was mounted in a thermostatically controlled tissue bath containing aerated PSS (mM: 119 NaCl, 4.7 KCl, 24 NaHCO 3, 1.2 KH2PO4, 2.5 CaCl2, 1.2 MgSO4, 0.023 EDTA, and 11 glucose; 5 ml volume, 95% O2 and 5% CO2, 37° C.) and stretched to a resting tension of 0.1 mN. The contractile responses of the strips were analysed by adding 10 μM phenylephrine to the bath, and force changes were recorded in response to drug application and to electrical field stimulation. The particular electrical field stimulation parameters of 0-30V, 30 HZ with a pulse width of approximately 0.5 ms, are commonly used in the mice. […] The changes of cAMP and cGMP contents in CC strips were subsequently measured by commercial enzyme immunoassay kit (Amersham Pharmacia) (see below).

For test [3], the system named is corpus cavernosum of wild type, A2A-deficient and A2B-deficient mice. The test can be described thus: Intracavernous injection of adenosine: intracavernous pressure (ICP) and penile erection. The test is classed as in vivo, mouse. The method, then: FIG. 6. Different amounts of adenosine were injected into the corpus cavernosum of wild type, adenosine receptor A2A-deficient, and adenosine receptor A2B-deficient mice and the resulting change in ICP determined.
Methods: ADA-deficient mice and SCD transgenic mice, a well accepted priapism animal model, are the only animals known in which a persistent and prolonged penile erection occurs spontaneously. […] We have measured intracavernosal pressure and corpus cavernosal strip (CCS) relaxation with or without PEG-ADA treatment and/or a series of adenosine receptor antagonists or agonists in wild type ADA-deficient mice, and corpus cavernosal strip (CCS) relaxation with or without PEG-ADA treatment and/or a series of adenosine receptor antagonists or agonists in SCD transgenic mice, in response to nerve stimulation. We have also measured the intracavernosal pressure and CCS relaxation with or without adenosine treatment in wild type and multiple adenosine receptor deficient mice.

Consider `CCCn1c(=O)c2[nH]c(-c3ccc(OCC(=O)Nc4ccc(C(C)=O)cc4)cc3)nc2n(CCC)c1=O` [MRS1706], for which the “EFS-increased cAMP levels were blocked” value in test [1] is reported as “completely blocked”.

On to `Nc1ncnc2c1ncn2[C@@H]1O[C@H](CO)[C@@H](O)[C@H]1O` [adenosine], for which the CCS relaxation entry in test [2] (A1R, A2AR and A3R deficient mice and wild type mice) is “dose-dependent increase in relaxation”; in test [2] (CCS from A2BR deficient mice), “completely absent”; in test [2] (CCS from wild type mice, different concentrations), “induced CCS relaxation in a dosage dependent manner”. Also, the “adenosine-induced increase in ICP” value in test [3] (A2B-deficient mice, injection into the corpus cavernosum) was “significantly reduced”. Also, in test [3] (wild type mice, administration of adenosine), the “intracavernous pressure (ICP) and its duration” value is “induced an increase in intracavernous pressure (ICP) and its duration”. Moreover, the penile erection entry in test [3] (wild type mice, local (intracavernous) injection) is “resulted in penile erection”.
